Measured values taken from paper PMC4668926 (Biochemistry, 2015).

How the values were obtained:
[1] = biological target: T1, KPR (ketopantoate reductase) (Staphylococcus aureus, UniProt A0A0J9X283); assay: FRET titration, Trp167 to bound NADPH; assay type: binding
T1 sequence (A0A0J9X283 1-286): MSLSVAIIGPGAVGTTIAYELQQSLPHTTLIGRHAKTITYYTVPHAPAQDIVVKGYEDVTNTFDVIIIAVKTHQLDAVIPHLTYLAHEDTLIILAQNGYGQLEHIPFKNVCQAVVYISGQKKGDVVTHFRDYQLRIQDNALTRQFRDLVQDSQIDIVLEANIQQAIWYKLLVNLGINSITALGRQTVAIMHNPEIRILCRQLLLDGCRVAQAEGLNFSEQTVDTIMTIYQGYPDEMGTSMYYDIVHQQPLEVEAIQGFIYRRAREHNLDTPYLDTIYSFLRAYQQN

[2] = biological target: Staphylococcus aureus ketopantoate reductase (Staphylococcus aureus); assay: AUC

| Compound | Kd [1] | stoichiometry N [2] |
| --- | --- | --- |
| NC(=O)C1=CN([C@@H]2O[C@H](COP(=O)(O)OP(=O)(O)OC[C@H]3O[C@@H](n4cnc5c(N)ncnc54)[C@H](OP(=O)(O)O)[C@@H]3O)[C@@H](O)[C@H]2O)C=CC1 [NADPH] | 58 ± 2 nM |  |
| Staphylococcus aureus ketopantoate reductase (enzyme) |  | 2 |
